The compounds below were run against T1, human liver glycogen phosphorylase a (HLGPa) (Homo sapiens, UniProt P06737) (assay: Human liver glycogen phosphorylase a enzymatic activity assay (coupled, fluorescent resorufin readout, with and without 10 mM glucose)). Settings: human liver glycogen phosphorylase a enzymatic activity assay.
T1 construct: creating a full-length cDNA fused at the 5′ end to codons for methionine-glycine-alanine-histidine; 6xHis tag (leader Met-Gly-Ala-His6-Gly-Gly) (N); made in house; host or cells: E. coli (bacterial expression plasmid pTXK1007LTev)
T1 sequence (P06737 2-847 limits assumed): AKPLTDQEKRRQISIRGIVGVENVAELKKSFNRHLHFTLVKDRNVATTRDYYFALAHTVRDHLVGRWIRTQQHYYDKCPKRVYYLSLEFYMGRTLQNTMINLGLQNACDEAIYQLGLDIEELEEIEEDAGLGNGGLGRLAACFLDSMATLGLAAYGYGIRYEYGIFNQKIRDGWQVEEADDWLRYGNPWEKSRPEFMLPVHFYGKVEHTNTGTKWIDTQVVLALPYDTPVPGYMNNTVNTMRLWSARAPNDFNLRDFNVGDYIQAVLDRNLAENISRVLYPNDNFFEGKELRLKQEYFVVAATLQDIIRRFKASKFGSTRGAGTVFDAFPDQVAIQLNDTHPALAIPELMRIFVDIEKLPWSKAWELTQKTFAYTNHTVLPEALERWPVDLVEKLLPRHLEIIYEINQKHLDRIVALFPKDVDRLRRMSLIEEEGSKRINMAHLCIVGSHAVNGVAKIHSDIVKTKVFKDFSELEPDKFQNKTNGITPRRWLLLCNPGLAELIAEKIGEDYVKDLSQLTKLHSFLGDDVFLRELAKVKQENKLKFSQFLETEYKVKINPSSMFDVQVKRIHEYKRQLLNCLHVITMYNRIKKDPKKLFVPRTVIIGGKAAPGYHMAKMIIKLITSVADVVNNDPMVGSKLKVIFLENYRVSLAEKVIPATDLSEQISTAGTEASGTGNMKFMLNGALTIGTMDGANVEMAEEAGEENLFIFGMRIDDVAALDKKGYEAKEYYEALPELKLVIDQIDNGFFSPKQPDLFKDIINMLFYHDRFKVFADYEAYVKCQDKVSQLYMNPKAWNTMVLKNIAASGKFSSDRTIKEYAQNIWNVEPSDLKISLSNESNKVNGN
Format: biochemical

For `Cc1cccc(C)c1NC(=O)Nc1ccccc1C(=O)N[C@H](C(=O)O)C1CCCCC1` [Example 94, (2S)-cyclohexyl{[2-({[(2,6-dimethylphenyl)amino]carbonyl}amino)benzoyl]amino}acetic acid], which IC50 is on record?
The IC50 was 0.53 µM.

How did the IC50 turn out when `Cc1ccccc1NC(=O)Nc1cc2ccccc2cc1C(=O)NC(C(=O)O)c1ccccc1` (stereo not shown) [Example 95, {[3-({[(2-methylphenyl)amino]carbonyl}amino)-2-naphthoyl]amino}(phenyl)acetic acid] was run?
The IC50 was 9.89 µM.

With `Cc1ccccc1NC(=O)Nc1cc2ccccc2cc1C(=O)N[C@@H](Cc1cccs1)C(=O)O` [Example 96, N-{[3-({[(2-methylphenyl)amino]carbonyl}amino)-2-naphthalenyl]carbonyl}-3-(2-thienyl)-L-alanine] as the compound, how does the IC50 read?
Its IC50 is 5.07 µM.

`Cc1cccc(C)c1NC(=O)Nc1cc2ccccc2cc1C(=O)NC(C(=O)O)c1ccccc1` (stereo not shown) [Example 97, {[3-({[(2,6-dimethylphenyl)amino]carbonyl}amino)-2-naphthoyl]amino}(phenyl)acetic acid] was tested. Which IC50 did it give?
Its IC50 is 0.66 µM.

How did the IC50 turn out when `Cc1cccc(C)c1NC(=O)Nc1cc2ccccc2cc1C(=O)N[C@@H](Cc1cccs1)C(=O)O` [Example 98, N-{[3-({[(2,6-dimethylphenyl)amino]carbonyl}amino)-2-naphthalenyl]carbonyl}-3-(2-thienyl)-L-alanine] was run?
The IC50 was 0.54 µM.

How did the IC50 turn out when `Cc1cccc(C)c1NC(=O)Nc1cc2ccccc2cc1C(=O)N[C@@H](CC1CCCCC1)C(=O)O` [Example 99, 3-cyclohexyl-N-[3-({[(2,6-dimethylphenyl)amino]carbonyl}amino)-2-naphthoyl]-L-alanine] was run?
Its IC50 is 0.49 µM.

Which IC50 does the source give for `O=C(Nc1ccccc1Cl)Nc1cc2ccccc2cc1C(=O)NC(C(=O)O)c1ccccc1` (stereo not shown) [Example 100, {[3-({[(2-chlorophenyl)amino]carbonyl}amino)-2-naphthoyl]amino}(phenyl)acetic acid] here?
The IC50 was 7.63 µM.

`O=C(Nc1ccccc1Cl)Nc1cc2ccccc2cc1C(=O)N[C@@H](Cc1cccs1)C(=O)O` [Example 101, N-{[3-({[(2-chlorophenyl)amino]carbonyl}amino)-2-naphthalenyl]carbonyl}-3-(2-thienyl)-L-alanine] was tested. Which IC50 did it give?
The IC50 was 2.78 µM.

Which IC50 does the source give for `Cc1cccc(Cl)c1NC(=O)Nc1cc2ccccc2cc1C(=O)N[C@@H](Cc1cccs1)C(=O)O` [Example 102, N-{[3-({[(2-chloro-6-methylphenyl)amino]carbonyl}amino)-2-naphthalenyl]carbonyl}-3-(2-thienyl)-L-alanine] here?
The IC50 was 0.36 µM.

For `Cc1cc(C)c(NC(=O)Nc2cc3ccccc3cc2C(=O)NC(C(=O)O)c2ccccc2)c(C)c1` (stereo not shown) [Example 103, Phenyl({[3-({[(2,4,6-trimethylphenyl)amino]carbonyl}amino)-2-naphthalenyl]carbonyl}amino)acetic acid], which IC50 is on record?
The IC50 was 0.06 µM.

How did the IC50 turn out when `Cc1cccc(C(C)C)c1NC(=O)Nc1cc2ccccc2cc1C(=O)NC(C(=O)O)c1ccccc1` (stereo not shown) [Example 104, {[3-({[(2-isopropyl-6-methylphenyl)amino]carbonyl}amino)-2-naphthoyl]amino}(phenyl)acetic acid] was run?
Its IC50 is 1.04 µM.

`COc1cc(NC(=O)Nc2c(C)cccc2C)c(C(=O)NC(C(=O)O)c2ccccc2)cc1OC` (stereo not shown) [Example 105, {[2-({[(2,6-dimethylphenyl)amino]carbonyl}amino)-4,5-dimethoxybenzoyl]amino}(phenyl)acetic acid] was tested. Which IC50 did it give?
Its IC50 is 19.6 µM.

Which IC50 does the source give for `COc1cc(NC(=O)Nc2c(C)cc(C)cc2C)c(C(=O)NC(C(=O)O)c2ccccc2)cc1OC` (stereo not shown) [Example 106, [(2-{[(mesitylamino)carbonyl]amino}-4,5-dimethoxybenzoyl)amino](phenyl)acetic acid] here?
The IC50 was 4.23 µM.

For `COc1cc(NC(=O)Nc2c(C)cccc2Cl)c(C(=O)NC(C(=O)O)c2ccccc2)cc1OC` (stereo not shown) [Example 107, {[2-({[(2-chloro-6-methylphenyl)amino]carbonyl}amino)-4,5-dimethoxybenzoyl]amino}(phenyl)acetic acid], which IC50 is on record?
The IC50 was 12.2 µM.

For `Cc1cccc(C(C)C)c1NC(=O)Nc1cc2ccccc2cc1C(=O)N[C@@H](C(=O)O)C1CCCCC1` [Example 109, (2R)-cyclohexyl{[3-({[(2-isopropyl-6-methylphenyl)amino]carbonyl}amino)-2-naphthoyl]amino}acetic acid], which IC50 is on record?
Its IC50 is 19.8 µM.

How did the IC50 turn out when `Cc1cccc(Cl)c1NC(=O)Nc1cc(F)c(F)cc1C(=O)N[C@H](C(=O)O)C1CCCCC1` [Example 112, (2S)-{[2-({[(2-chloro-6-methylphenyl)amino]carbonyl}amino)-4,5-difluorobenzoyl]amino}(cyclohexyl)acetic acid] was run?
Its IC50 is 0.86 µM.

With `COc1cc(NC(=O)Nc2c(C)cccc2Cl)c(C(=O)N[C@H](C(=O)O)C2CCCCC2)cc1OC` [Example 113, (2S)-{[2-({[(2-chloro-6-methylphenyl)amino]carbonyl}amino)-4,5-dimethoxybenzoyl]amino}(cyclohexyl)acetic acid] as the compound, how does the IC50 read?
Its IC50 is 7.04 µM.

Which IC50 does the source give for `Cc1cccc(Cl)c1NC(=O)Nc1cc(F)c(F)cc1C(=O)N[C@@H](CC1CCCCC1)C(=O)O` [Example 114, N-[2-({[(2-chloro-6-methylphenyl)amino]carbonyl}amino)-4,5-difluorobenzoyl]-3-cyclohexyl-L-alanine] here?
Its IC50 is 18.7 µM.

`COc1cc(NC(=O)Nc2c(C)cccc2Cl)c(C(=O)N[C@@H](CC2CCCCC2)C(=O)O)cc1OC` [Example 115, N-[2-({[(2-chloro-6-methylphenyl)amino]carbonyl}amino)-4,5-dimethoxybenzoyl]-3-cyclohexyl-L-alanine] was tested. Which IC50 did it give?
Its IC50 is 13 µM.

How did the IC50 turn out when `Cc1cccc(C)c1NC(=O)Nc1cc(F)c(F)cc1C(=O)N[C@H](C(=O)O)C1CCCCC1` [Example 116, (2S)-cyclohexyl{[2-({[(2,6-dimethylphenyl)amino]carbonyl}amino)-4,5-difluorobenzoyl]amino}acetic acid] was run?
Its IC50 is 1.63 µM.

For `COc1cc(NC(=O)Nc2c(C)cccc2C)c(C(=O)N[C@H](C(=O)O)C2CCCCC2)cc1OC` [Example 117, (2S)-cyclohexyl{[2-({[(2,6-dimethylphenyl)amino]carbonyl}amino)-4,5-dimethoxybenzoyl]amino}acetic acid], which IC50 is on record?
Its IC50 is 14.7 µM.

Which IC50 does the source give for `Cc1cccc(C)c1NC(=O)Nc1cc(F)c(F)cc1C(=O)N[C@@H](CC1CCCCC1)C(=O)O` [Example 118, 3-cyclohexyl-N-[2-({[(2,6-dimethylphenyl)amino]carbonyl}amino)-4,5-difluorobenzoyl]-L-alanine] here?
Its IC50 is 15.7 µM.

`COc1cc(NC(=O)Nc2c(C)cccc2C)c(C(=O)N[C@@H](CC2CCCCC2)C(=O)O)cc1OC` [Example 119, 3-cyclohexyl-N-[2-({[(2,6-dimethylphenyl)amino]carbonyl}amino)-4,5-dimethoxybenzoyl]-L-alanine] was tested. Which IC50 did it give?
The IC50 was 13.6 µM.

For `CCc1cccc(CC)c1NC(=O)Nc1cc2ccccc2cc1C(=O)NC(C(=O)O)c1ccccc1` (stereo not shown) [Example 120, {[3-({[(2,6-diethylphenyl)amino]carbonyl}amino)-2-naphthoyl]amino}(phenyl)acetic acid], which IC50 is on record?
The IC50 was 24.6 µM.

For `CCc1cccc(CC)c1NC(=O)Nc1cc(Cl)ccc1C(=O)N[C@H](Cc1ccccc1F)C(=O)O` [Example 121, N-[4-chloro-2-({[(2,6-diethylphenyl)amino]carbonyl}amino)benzoyl]-2-fluoro-D-phenylalanine], which IC50 is on record?
The IC50 was 3.44 µM.

`Cc1cccc(Cl)c1NC(=O)Nc1cc2ccccc2cc1C(=O)N[C@@H](CC1CCCCC1)C(=O)O` [Example 122, N-[3-({[(2-chloro-6-methylphenyl)amino]carbonyl}amino)-2-naphthoyl]-3-cyclohexyl-L-alanine] was tested. Which IC50 did it give?
Its IC50 is 2.23 µM.

`Cc1cccc(Cl)c1NC(=O)Nc1cc2ccccc2cc1C(=O)NC(C(=O)O)c1ccccc1` (stereo not shown) [Example 123] was tested. Which IC50 did it give?
Its IC50 is 0.27 µM.

`Cc1cccc(Cl)c1NC(=O)Nc1cc2ccccc2cc1C(=O)N[C@H](Cc1ccccc1F)C(=O)O` [Example 124, N-[3-({[(2-chloro-6-methylphenyl)amino]carbonyl}amino)-2-naphthoyl]-2-fluoro-D-phenylalanine] was tested. Which IC50 did it give?
The IC50 was 5.82 µM.

`Cc1cccc(Cl)c1NC(=O)Nc1cc(Cl)ccc1C(=O)N[C@@H](CC1CCCCC1)C(=O)O` [Example 125, N-[4-chloro-2-({[(2-chloro-6-methylphenyl)amino]carbonyl}amino)benzoyl]-3-cyclohexyl-L-alanine] was tested. Which IC50 did it give?
Its IC50 is 28.6 µM.

`CC[C@H](C)[C@H](NC(=O)c1c(NC(=O)Nc2c(C)cccc2C)sc2c1CCCC2)C(=O)O` [Example 126, N-{[2-({[(2,6-dimethylphenyl)amino]carbonyl}amino)-4,5,6,7-tetrahydro-1-benzothien-3-yl]carbonyl}-L-isoleucine] was tested. Which IC50 did it give?
The IC50 was 13.9 µM.

With `CC[C@H](C)[C@H](NC(=O)c1c(NC(=O)Nc2c(C)cc(C)cc2C)sc2c1CCCC2)C(=O)O` [Example 127, N-[(2-{[(mesitylamino)carbonyl]amino}-4,5,6,7-tetrahydro-1-benzothien-3-yl)carbonyl]-L-isoleucine] as the compound, how does the IC50 read?
Its IC50 is 18.2 µM.
